Experimental data reported in publication PMC4076079, “Selective inhibitors of a PAF biosynthetic enzyme lysophosphatidylcholine acyltransferase 2” (Journal of Lipid Research, 2014).

Assays:
Assay type in all cases: biochemical
hLPCAT1 = target: T1, hLPCAT1 (Homo sapiens, UniProt Q8NF37); assay: acyltransferase activity assay, DPPC product by LC-MS/MS; conditions: for IC50: 0, 0.2, 0.6, 2, 6 and 20 μM of each compound in triplicate, LC-MS/MS, read-out: IC50, product DPPC, enzyme hLPCAT1; for percentage inhibition, product DPPC, hLPCAT1: 20 μM compound, microsomal fractions of nonstimulated CHO-S-PAFR cells, n = 3, mean ± SEM
T1 construct: expressed in transfected cells
T1 sequence (Q8NF37 1-534): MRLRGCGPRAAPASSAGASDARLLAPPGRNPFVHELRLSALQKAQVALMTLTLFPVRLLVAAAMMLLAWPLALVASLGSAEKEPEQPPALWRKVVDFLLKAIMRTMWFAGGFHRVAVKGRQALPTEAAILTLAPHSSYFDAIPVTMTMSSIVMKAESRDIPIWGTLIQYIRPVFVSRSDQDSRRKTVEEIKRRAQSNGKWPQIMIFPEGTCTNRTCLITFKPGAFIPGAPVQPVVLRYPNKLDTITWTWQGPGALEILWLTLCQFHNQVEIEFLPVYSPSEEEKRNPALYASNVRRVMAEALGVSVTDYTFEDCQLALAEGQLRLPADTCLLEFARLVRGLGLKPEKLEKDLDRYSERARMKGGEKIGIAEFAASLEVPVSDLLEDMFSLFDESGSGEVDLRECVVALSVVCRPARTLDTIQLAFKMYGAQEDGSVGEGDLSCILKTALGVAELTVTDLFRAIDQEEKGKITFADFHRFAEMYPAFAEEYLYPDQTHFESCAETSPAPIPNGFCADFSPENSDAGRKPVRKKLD
Experimental: (§1) Microsomal protein fractions (0.5 μg) supplemented with the indicated compound concentrations were added to the reaction mixture containing 100 mM Tris-HCl (pH 7.4), 1 μM CaCl2, 0.015% Tween-20, and two substrates. For acetyltransferase activity, the substrates were 1 mM acetyl-CoA and 5 μM d4-lyso-PAF; for the acyltransferase activity of LPCAT1 or LPCAT2, the substrates were, respectively, palmitoyl-CoA and d31-16:0 LPC or arachidonoyl-CoA and d4-lyso-PAF (all 5 μM). Each lysophospholipid contained fatty acid at the sn-1 position. After incubation at 37°C for 5 min, the reactions were stopped by adding 300 μl methanol containing 17:0 LPC or 14:0/14:0 PC as an internal standard. Deuterium-labeled products were analyzed by LC-MS/MS (Waters, Milford, MA and Thermo Scientific, Waltham, MA). […]
Steps 2 to 5 screening: 96-well plate assay
Acetyltransferase and acyltransferase assays were developed in 96-well plates. The microsomal hLPCAT2, obtained from mcPAF-stimulated CHO-S-PAFR cells was used in steps 1, 2, and 5. The microsomal hLPCAT1 obtained from unstimulated CHO-S cells was used in steps 3 to 5. Each well of the 96-well plates contained 30 µl of 15 µg/ml protein, 600 nl of 2 mM compound, 30 µl buffer C, and two substrates (Fig. 1B and C).
Substrate concentrations were as follows: acetyl-CoA, 250 or 1000 µM acetyl-CoA; […]
arachidonoyl-CoA, 5 µM; palmitoyl-CoA, 5 µM; d4-lyso-PAF, 5 µM; and d31-LPC, 5 µM.
For step 5, compound concentrations were 0, 0.167, 0.67, 2, 6.7, and 20 µM. The deuterium-labeled products were measured by LC-MS/MS. Percentage inhibition (steps 2 to 4) or IC50 (step 5) was used as the hit criterion. […]
(§2) Step 7 screening: species-specific differences
(§3) To evaluate the effects on the activity of mouse or human LPCAT1 and LPCAT2, each microsomal fraction was obtained using CHO-S-PAFR cells with or without mcPAF (200 nM) stimulation for 5 min. Acetyltransferase and acyltransferase assays were performed with 20 µM of each compound. Percentage inhibition was calculated in each

mLPCAT2 = target: T2, mLPCAT2 (Mus musculus, UniProt Q8BYI6); assay: acyltransferase activity assay, 16:0/20:4 alkyl-PC product; conditions: 20 μM compound; microsomal fractions of nonstimulated CHO-S-PAFR cells; n = 3, mean ± SEM
T2 construct: expressed in transfected cells; host or cells: CHO-S-PAFR cells, microsomal fraction, with or without mcPAF stimulation
T2 sequence (Q8BYI6 1-544): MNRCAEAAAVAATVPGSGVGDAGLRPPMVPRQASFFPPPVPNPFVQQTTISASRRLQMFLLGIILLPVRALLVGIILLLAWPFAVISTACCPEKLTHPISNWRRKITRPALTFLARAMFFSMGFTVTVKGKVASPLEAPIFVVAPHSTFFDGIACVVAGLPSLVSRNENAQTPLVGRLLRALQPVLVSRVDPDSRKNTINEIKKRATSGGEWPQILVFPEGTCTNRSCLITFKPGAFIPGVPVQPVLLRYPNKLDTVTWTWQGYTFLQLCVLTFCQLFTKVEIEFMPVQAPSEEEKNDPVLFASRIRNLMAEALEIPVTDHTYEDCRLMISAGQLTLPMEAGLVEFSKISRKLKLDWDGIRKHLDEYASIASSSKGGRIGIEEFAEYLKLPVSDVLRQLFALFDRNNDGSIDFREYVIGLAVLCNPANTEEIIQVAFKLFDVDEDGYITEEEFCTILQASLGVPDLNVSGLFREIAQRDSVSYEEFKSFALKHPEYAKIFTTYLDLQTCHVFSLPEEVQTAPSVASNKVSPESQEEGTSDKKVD
Experimental: as §1
(§4) arachidonoyl-CoA, 5 µM; palmitoyl-CoA, 5 µM; d4-lyso-PAF, 5 µM; and d31-LPC, 5 µM. […]
(§5) deuterium-labeled products were measured by LC-MS/MS. […]
as §2, §3

mLPCAT1 = target: T3, mLPCAT1 (Mus musculus, UniProt Q3TFD2); assay: acyltransferase activity assay, DPPC product; conditions: 20 μM compound; microsomal fractions of nonstimulated CHO-S-PAFR cells; n = 3, mean ± SEM
T3 construct: expressed in transfected cells; host or cells: CHO-S-PAFR cells, microsomal fraction
T3 sequence (Q3TFD2 1-534): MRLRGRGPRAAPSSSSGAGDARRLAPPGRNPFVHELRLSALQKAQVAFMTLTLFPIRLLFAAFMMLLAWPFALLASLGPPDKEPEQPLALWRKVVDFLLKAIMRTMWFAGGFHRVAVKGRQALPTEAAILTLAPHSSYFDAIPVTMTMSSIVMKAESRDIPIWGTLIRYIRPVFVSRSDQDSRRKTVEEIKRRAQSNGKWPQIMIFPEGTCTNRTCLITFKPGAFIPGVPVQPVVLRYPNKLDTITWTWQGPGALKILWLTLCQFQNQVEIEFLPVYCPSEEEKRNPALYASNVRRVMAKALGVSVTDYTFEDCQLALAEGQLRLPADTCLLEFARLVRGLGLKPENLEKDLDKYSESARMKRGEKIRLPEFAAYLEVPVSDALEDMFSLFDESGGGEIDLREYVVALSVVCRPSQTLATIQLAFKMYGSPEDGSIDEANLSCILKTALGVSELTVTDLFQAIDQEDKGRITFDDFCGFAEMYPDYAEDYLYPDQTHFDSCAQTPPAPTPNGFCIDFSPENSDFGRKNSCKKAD
Experimental: as §1, §4, §5, §2, §3

| SMILES | IC50 (hLPCAT1) [µM] | percentage inhibition, product DPPC, hLPCAT1 (hLPCAT1) [percentage] | percentage inhibition, product 16:0/20:4 Alkyl-PC, mLPCAT2 (mLPCAT2) [percentage] | percentage inhibition, product DPPC, mLPCAT1 (mLPCAT1) [percentage] |
| --- | --- | --- | --- | --- |
| CC(C)OC(=O)c1ccc(N2C(=O)C(Cl)=C(Cl)C2=O)cc1 [TSI-01, propan-2-yl 4-(3,4-dichloro-2,5-dioxopyrrol-1-yl)benzoate] | > 20 | 25.3 ± 8.7 | 95.5 ± 1.8 | 28.2 ± 4.0 |
| O=C1C(Cl)=C(N2CCOCC2)C(=O)N1c1ccc(Oc2ccccc2)cc1 [TSI-02, 3-chloro-4-morpholin-4-yl-1-(4-phenoxyphenyl)pyrrole-2,5-dione] | > 20 | – | – | – |
| CC(C)OC(=O)c1ccc(N2C(=O)C(Cl)=C(Nc3ccccc3O)C2=O)cc1 [TSI-07] | > 20 | 19.5 ± 8.0 | 82.4 ± 5.7 | 36.3 ± 5.7 |
| CCCOC(=O)c1ccc(N2C(=O)C(Cl)=C(Cl)C2=O)cc1 [TSI-10] | > 20 | 23.9 ± 3.4 | 86.7 ± 5.2 | 14.8 ± 10.9 |
| CCCCOC(=O)c1ccc(N2C(=O)C(Cl)=C(Cl)C2=O)cc1 [TSI-11, butyl 4-(3,4-dichloro-2,5-dioxopyrrol-1-yl)benzoate] | > 20 | 14.2 ± 4.8 | 83.0 ± 3.5 | 12.2 ± 20.5 |
